For one test, the target named is SHANK1-PDZ (Homo sapiens, UniProt Q9Y566). Kind of test: biochemical.
For a further test, the target named is p53/hDM2 (Homo sapiens, UniProt Q00987). Kind of test: competition fluorescence anisotropy assay, displacement of p53 15-31 Flu from hDM2. The test is classed as binding. The conditions noted are these: for ligand efficiency: LE = 1.4 × pIC50/nHA, from p53/hDM2 fluorescence anisotropy IC50. A general note: Fluorescence polarisation rises when a labelled molecule tumbles more slowly, as on binding a larger partner.

The target in another test is T1, GKAP/SHANK1-PDZ (Homo sapiens, UniProt Q9Y566).
T1 construct: Shank 1 PDZ domain (656-762) was expressed and purified as described; made in house
T1 sequence (Q9Y566 656-762): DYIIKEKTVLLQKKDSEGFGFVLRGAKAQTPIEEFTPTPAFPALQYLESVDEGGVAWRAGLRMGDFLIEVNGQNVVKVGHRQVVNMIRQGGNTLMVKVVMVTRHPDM
As to the kind of experiment: fluorescence anisotropy competition assay GKAP/SHANK1-PDZ. In kind it is binding. The conditions noted are these: for IC50: FITC-GKAP 50 nM, SHANK1-PDZ 1 μM, pH 7.4, 20 mM Tris, 150 mM NaCl, 0.01% Triton-X-100.

The next test deals with BID/MCL-1 (Homo sapiens, UniProt Q07820). To be noted: 200 nM MCL-1, 50 nM FITC-Ahx-NOXA-B tracer (Fig. S10).
Where [1] appears, read: Table S2, SAR competition assays, Plate Reader II, * lower anisotropy observed, attributed to solubility causing assay interference (7a, 7b, 7c), read-out: IC50.
Where [2] appears, read: Fig. 4b, fluorescence anisotropy competition: 150 nM hDM2 and p53 15-31 Flu, 40 mM phosphate, pH 7.4, 200 mM NaCl, 0.02 mg/ml BSA, > 150 μM, read-out: IC50 (Fig. 4b).
Where [3] appears, read: Table S2, SAR competition assays, Plate Reader II, read-out: IC50.
Where [4] appears, read: fluorescence anisotropy competition, 150 nM hDM2, 25 nM p53 15-31 Flu, 40 mM phosphate pH 7.4, 200 mM NaCl, 0.02 mg/ml BSA, read-out: IC50.
The mark [5] stands for this setting: Fig. 4b, same assay, unit inferred, † non-specific interactions observed (11c), read-out: IC50 (Fig. 4b, numbers inside wedges).

Where “and” joins values, the source holds several entries; their conditions need not be identical. Equal values may be shown once. Read-outs that look alike come from different tables or passages of the source.

Usually Kd stands for the constant that tells how readily two partners part at equilibrium. On SHANK1-PDZ, “Ac-EAQTRF-OH [L6F GKAP, Ac-Glu-Ala-Gln-Thr-Arg-Phe-CO2H]” registered a dissociation constant Kd of 5 µM.
The IC50 is the concentration at which inhibition is half-maximal. In the case of `O=C(CC(c1ccccc1)c1c[nH]c2ccc(Cl)cc12)NCCc1ccccc1` (stereo not drawn) [9b], the IC50 on p53/hDM2 (setting [1]) was greater than 200 µM.
For the compound `O=C(CC(c1ccc(Cl)s1)c1c[nH]c2ccc(Cl)cc12)NCCc1ccccc1` (stereo not drawn) [7b], the IC50 at p53/hDM2 (setting [1]) turned out to be 13 ± 2 µM.
With `O=C(CC(c1ccc(Cl)s1)c1c(C(=O)O)[nH]c2ccc(Cl)cc12)NC1CC1c1ccccc1` (stereo not drawn) [compound 14], the concentration for half-maximal inhibition (IC50) is 2 µM at p53/hDM2 (setting [2]), 2.2 ± 0.5 µM at p53/hDM2 (setting [3]) and 2.2 µM on p53/hDM2 (setting [4]).
On to `O=C(O)CCNC(=O)c1[nH]c2ccc(Cl)cc2c1C(CC(=O)NCCc1ccccn1)c1ccc(Cl)s1` (stereo not drawn) [11e], for which the IC50 at p53/hDM2 (setting [3]) turned out to be 14 ± 2 µM.
For `NCCNC(=O)c1[nH]c2ccc(Cl)cc2c1C(CC(=O)NCCc1ccccn1)c1ccc(Cl)s1` (stereo not drawn) [11f], the results for the IC50 at p53/hDM2 (setting [3]) and on p53/hDM2 (setting [4]) were 25 ± 4 µM and 25 µM, respectively.
In the case of `O=C(CC(c1ccc(Cl)s1)c1c[nH]c2cc(Cl)ccc12)NCCc1ccccc1` (stereo not drawn) [8b], at p53/hDM2 (setting [1]), the half-inhibitory concentration (IC50) stood at 18 ± 11 µM.
Still for that read-out and setting: the result for `O=C(CC(c1ccc(Cl)s1)c1c[nH]c2ccc(Cl)cc12)NC1CC1c1ccccc1` (stereo not drawn) [7a] reads 1.2 ± 1 µM.
The same measure, in the same setting: in the case of `COCCNC(=O)CC(c1ccc(Cl)s1)c1c[nH]c2cc(Cl)ccc12` (stereo not drawn) [8c] it was 86 ± 29 µM.
Still for that read-out and setting: in the case of `O=C(CC(c1ccccc1)c1c[nH]c2ccc(Cl)cc12)NCCc1ccccn1` (stereo not drawn) [9a] it was greater than 200 µM.
As to `CC(C(=O)NCCc1ccccn1)C(c1ccc(Cl)s1)c1c[nH]c2ccc(Cl)cc12` (stereo not drawn) [syn-10], at p53/hDM2 (setting [3]), the IC50 amounted to 21 ± 14 µM.
On the same count and under the same terms, in the case of `O=C(CC(c1ccc(Cl)s1)c1c(Br)[nH]c2ccc(Cl)cc12)NCCc1ccccn1` (stereo not drawn) [11d] it was 12 ± 9 µM; in that of `O=C(CC(c1ccc(Cl)s1)c1c(C(=O)NCc2ccccc2)[nH]c2ccc(Cl)cc12)NCCc1ccccn1` (stereo not drawn) [11h], greater than 200 µM.
As to `O=C(O)c1ccc([N+](=O)[O-])c2c1NC(C(=O)O)[C@H]1CC=C[C@@H]21` (stereo partly drawn) [Z-2, reference compound], the IC50 at GKAP/SHANK1-PDZ is roughly 110 µM.
As to `CC(C)CNC(=O)c1[nH]c2ccc(Cl)cc2c1C(CC(=O)NCCc1ccccn1)c1ccc(Cl)s1` (stereo not drawn) [11i], the 50% inhibitory concentration (IC50) at p53/hDM2 (setting [3]) is greater than 200 µM.
`COCCNC(=O)CC(c1ccc(Cl)s1)c1c[nH]c2ccc(Cl)cc12` (stereo not drawn) [7d]: the IC50 on p53/hDM2 (setting [1]) was greater than 200 µM.
Regarding `CC(C(=O)NCCc1ccccn1)C(c1ccc(Cl)s1)c1c[nH]c2ccc(Cl)cc12` (single isomer, unassigned; (+)) [(+)-anti-10], the IC50 at p53/hDM2 (setting [3]) was found to be 2.9 ± 0.4 µM; at p53/hDM2 (setting [4]), 2.9 µM.
Take `COCCNC(=O)CC(c1ccccc1)c1c[nH]c2ccc(Cl)cc12` (stereo not drawn) [9d]: the IC50 on p53/hDM2 (setting [1]) was greater than 200 µM.
For `O=C(CC(c1ccc(Cl)s1)c1c[nH]c2cc(Cl)ccc12)NCCc1ccccn1` (stereo not drawn) [8a], the figures for the IC50 on p53/hDM2 (setting [1]) and at p53/hDM2 (setting [4]) were 10 ± 2 µM and 6 µM, respectively.
In the case of `CC(C(=O)NCCc1ccccn1)C(c1ccc(Cl)s1)c1c[nH]c2ccc(Cl)cc12` (stereo not drawn) [anti-10], the ligand efficiency at p53/hDM2 was found to be 0.26. The IC50 at p53/hDM2 (setting [3]) is 3.1 ± 0.4 µM; on p53/hDM2 (setting [4]) it was 3.1 µM.
For the compound `O=C(CC(c1ccc(Cl)s1)c1c(C(=O)O)[nH]c2ccc(Cl)cc12)NCCc1ccccn1` (stereo not drawn) [11b], the IC50 on p53/hDM2 (setting [5]) was 3 µM; on p53/hDM2 (setting [3]), 2.9 ± 0.2 µM. The compound also yielded a ligand efficiency on p53/hDM2 of 0.26.
With `O=C(CC(c1ccc(Cl)s1)c1c[nH]c2ccc(Cl)cc12)NCc1ccccc1` (stereo not drawn) [7c], on p53/hDM2 (setting [1]), the IC50 is 5 ± 2 µM. In addition, the “p53/hDM2 inhibitory activity in words (SAR)” value at p53/hDM2 (competition anisotropy, SAR discussion) is “loss of activity”.
Compound `NS(=O)(=O)c1ccc2c(c1)[C@@H]1C=CC[C@@H]1[C@H](C(=O)O)N2` [Z-1] yielded an IC50 at GKAP/SHANK1-PDZ of 390 µM. Besides, the “ligand efficiency (LE)” value on GKAP/SHANK1-PDZ (from GKAP/SHANK1-PDZ fluorescence anisotropy IC50) stood at 0.24.
Take `CC(C)(C)OC(=O)NCCNC(=O)c1[nH]c2ccc(Cl)cc2c1C(CC(=O)NCCc1ccccn1)c1ccc(Cl)s1` (stereo not drawn) [11g]: the IC50 at p53/hDM2 (setting [3]) was greater than 200 µM.
For the compound `CC(C)(C(=O)NCCc1ccccn1)C(c1ccc(Cl)s1)c1c[nH]c2ccc(Cl)cc12` (stereo not drawn) [compound 12], the IC50 at p53/hDM2 (setting [2]) is 8 µM; on p53/hDM2 (setting [3]), 8 ± 4 µM; at p53/hDM2 (setting [4]), roughly 8 µM.
The corresponding values for `CC(C(=O)N1CCC(c2ccccn2)C1)C(c1ccc(Cl)s1)c1c[nH]c2cc(Cl)ccc12` (stereo not drawn) [compound 13] are 1 µM, 1.2 ± 0.4 µM and 1.2 µM.
As for `O=C(CC(c1ccc(Cl)s1)c1c(Br)[nH]c2cc(Cl)ccc12)NCCc1ccccn1` (stereo not drawn) [11a], the figures for the IC50 at p53/hDM2 (setting [5]), at p53/hDM2 (setting [3]) and at p53/hDM2 (setting [4]) were 2 µM, 1.7 ± 0.2 µM and 1 µM, respectively. At p53/hDM2, this compound displayed a ligand efficiency of 0.28.
As to `O=C(CC(c1ccc(Cl)s1)c1c[nH]c2ccc(Cl)cc12)NCCc1ccccn1` (stereo not drawn) [A1], the “inhibition in FA competition assay for BID/MCL-1” value on BID/MCL-1 is “no inhibition”. Moreover, the IC50 is 8 µM on p53/hDM2 (setting [5]); 7.9 ± 0.9 µM on p53/hDM2 (setting [1]); 7.9 µM and 8 µM on p53/hDM2 (setting [4]). In addition, on p53/hDM2, the ligand efficiency is recorded as 0.24.
For `CC(C(=O)NCCc1ccccn1)C(c1ccc(Cl)s1)c1c[nH]c2ccc(Cl)cc12` (single isomer, unassigned; (-)) [(−)-anti-10], the IC50 at p53/hDM2 (setting [3]) turned out to be 4.6 ± 0.6 µM; on p53/hDM2 (setting [4]) it was 4.6 µM.
Take `CCOC(=O)CCNC(=O)c1[nH]c2ccc(Cl)cc2c1C(CC(=O)NCCc1ccccn1)c1ccc(Cl)s1` (stereo not drawn) [11c]: the IC50 on p53/hDM2 (setting [5]) worked out at 3 µM; at p53/hDM2 (setting [3]) it was 3.2 ± 0.7 µM.

Values taken from publication PMC8179539, “Query-guided protein–protein interaction inhibitor discovery” (Chemical Science, 2021).
